Laboratory results taken from article PMC7054845 (Journal of medicinal chemistry, 2019).

Tested on: hMMP-12
Experiment: hMMP-12 inhibition assay in diluted mouse plasma
Format: biochemical, human
Settings: mouse plasma versus buffer

## NC(=O)[C@H](CCC(=O)O)NC(=O)[C@H](CCC(=O)O)NC(=O)[C@H](Cc1cc(-c2ccc(-c3cccc(Cl)c3)cc2)no1)CP(=O)(O)c1ccc(Br)cc1 [RXP470.1]
  drop in affinity towards hMMP-12 in mouse plasma (factor): 470
